The text below walks through data of PubChem BioAssay (NCI).

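In this assay, cells in 96-well plates receive the compound at five concentrations for 48 hours. Endpoints are linearly interpolated between the surrounding concentrations. The concentration for 50% growth inhibition is given as GI50. The concentration for full growth arrest is given as TGI.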 Calls of active or inactive are those of the source. No stated cut-off is given here; in the data, active means GI50 below about 0.43 µM; inactive means the rest.

Among the test systems are OVCAR-8 ovarian; HT29 colon; NCI-H460 lung; OVCAR-3 ovarian; MDA-MB-231 breast; SK-MEL-28 melanoma; T-47D breast; DU-145 prostate; SR leukemia.
Common to all, as to assay: inhibition of tumour cell growth, NCI panel, 48 h

With `COc1cccc(C2c3cc4c(cc3OC(C)(N3CCCC3)C2C)OCO4)c1OC` (stereo unspecified), the TGI with OVCAR-8 ovarian is 98.1 µM; in the assay with HT29 colon, 22.3 µM; in the assay on NCI-H460 lung, 28.4 µM; in the assay with OVCAR-3 ovarian it was 25.4 µM; in the assay with MDA-MB-231 breast it was 52.9 µM; in the assay on SK-MEL-28 melanoma, more than 100 µM. The figures for the TGI in the assay on T-47D breast, in the assay with DU-145 prostate and in the assay with SR leukemia were 46.6 µM, 49.9 µM and 22.5 µM, respectively.

Regarding `CCCCC[C@H](O)/C=C/[C@@H]1[C@@H](C/C=C\CCCC(=O)O)[C@@H](O)C[C@H]1O`, the GI50 in the assay with OVCAR-8 ovarian, with HT29 colon, in the assay on NCI-H460 lung, in the assay with OVCAR-3 ovarian, in the assay on MDA-MB-231 breast and with SK-MEL-28 melanoma was more than 100 µM each time. The GI50 in the assay on T-47D breast, in the assay on DU-145 prostate and with SR leukemia was more than 100 µM throughout. Also, the TGI in the assay with OVCAR-8 ovarian, in the assay with HT29 colon, with NCI-H460 lung, in the assay on OVCAR-3 ovarian, in the assay on MDA-MB-231 breast and in the assay on SK-MEL-28 melanoma was more than 100 µM each time. The TGI in the assay on T-47D breast, with DU-145 prostate and with SR leukemia was more than 100 µM throughout.

As to `CC(=O)N[C@@H](Cc1ccc(OP(=O)(O)O)cc1)C(=O)N[C@H]1CCC(=O)N2CCC[C@@H](C(=O)NCc3ccc(Cl)cc3)N2C1=O`, the GI50 in the assay on OVCAR-8 ovarian, in the assay on HT29 colon, with NCI-H460 lung, in the assay on OVCAR-3 ovarian, in the assay with MDA-MB-231 breast and with SK-MEL-28 melanoma was more than 25 µM in each case. In addition, the GI50 in the assay on T-47D breast, in the assay on DU-145 prostate and with SR leukemia was more than 25 µM throughout. Besides, the TGI in the assay with OVCAR-8 ovarian, in the assay on HT29 colon, with NCI-H460 lung, with OVCAR-3 ovarian, in the assay on MDA-MB-231 breast and in the assay with SK-MEL-28 melanoma was more than 25 µM each time. Also, the TGI in the assay with T-47D breast, with DU-145 prostate and with SR leukemia was more than 25 µM throughout.

As to `COc1ccc2oc(=O)cc(C(c3ccc[nH]3)c3ccc[nH]3)c2c1`, the GI50 was 0.116 µM in the assay with OVCAR-8 ovarian; 0.104 µM in the assay with HT29 colon; 0.107 µM in the assay on NCI-H460 lung; 0.0803 µM in the assay on OVCAR-3 ovarian; 0.109 µM in the assay on MDA-MB-231 breast; 0.874 µM in the assay on SK-MEL-28 melanoma. Also, the GI50 in the assay with T-47D breast is 0.118 µM. Further, the TGI in the assay with OVCAR-8 ovarian worked out at 14.2 µM; in the assay with HT29 colon, 0.659 µM; in the assay with NCI-H460 lung, 10.3 µM; in the assay on OVCAR-3 ovarian, 0.146 µM; in the assay on MDA-MB-231 breast it was 6.05 µM; in the assay on SK-MEL-28 melanoma, 14 µM. Also, the TGI in the assay with T-47D breast worked out at 26.6 µM; with DU-145 prostate, 12.8 µM; in the assay with SR leukemia it was 3.79 µM.

`CC1(C)N=C(N)N=C(N)N1c1cccc(CCCCc2cccc(S(=O)(=O)F)c2)c1`: the GI50 with OVCAR-8 ovarian was 4.84 µM; in the assay on HT29 colon it was 0.26 µM; in the assay on NCI-H460 lung it was 0.327 µM; in the assay on OVCAR-3 ovarian, 4.29 µM; in the assay on MDA-MB-231 breast, 6.6 µM; in the assay on SK-MEL-28 melanoma, 4.1 µM. Moreover, the GI50 in the assay with T-47D breast is 12.3 µM; with DU-145 prostate, 1.17 µM; with SR leukemia, 0.355 µM. Besides, the TGI in the assay on OVCAR-8 ovarian is more than 100 µM; in the assay on HT29 colon, more than 100 µM; in the assay on NCI-H460 lung it was more than 75.7 µM; in the assay with OVCAR-3 ovarian it was 27.1 µM; in the assay on MDA-MB-231 breast, more than 100 µM; in the assay on SK-MEL-28 melanoma it was 21.7 µM. Besides, the TGI in the assay with T-47D breast is 45.1 µM; in the assay on DU-145 prostate it was more than 100 µM; with SR leukemia it was 33.2 µM.

`O=[N+]([O-])c1ccc(S(=O)(=O)Cc2ccccc2)c([N+](=O)[O-])c1`: the TGI in the assay with OVCAR-8 ovarian came out at 3.7 µM; in the assay on HT29 colon, 5.55 µM; in the assay with NCI-H460 lung it was 9.43 µM; in the assay on OVCAR-3 ovarian, 2.57 µM; in the assay on MDA-MB-231 breast, 5.99 µM; with SK-MEL-28 melanoma, 8.24 µM. Also, the TGI in the assay on T-47D breast turned out to be 4.48 µM; in the assay with DU-145 prostate, 9.59 µM; with SR leukemia, 6.03 µM.

Take `COC(=O)CCC(=O)C(=O)OC`: the GI50 with OVCAR-8 ovarian is 63200 µM; in the assay with HT29 colon, 24200 µM; in the assay on NCI-H460 lung, 34100 µM; in the assay on OVCAR-3 ovarian it was 28600 µM; in the assay on MDA-MB-231 breast it was 39500 µM; with SK-MEL-28 melanoma it was 17600 µM. The results for the GI50 in the assay on DU-145 prostate and in the assay on SR leukemia were 31700 µM and 4360 µM, respectively. Further, the TGI was 85900 µM in the assay on HT29 colon, 60400 µM in the assay on SK-MEL-28 melanoma and 41100 µM in the assay with SR leukemia. The outcome with T-47D breast was inactive.

With `O=C1c2ccccc2-c2c1c1ccccc1c(=O)n2CCCCNCCCn1c2c(c3ccccc3c1=O)C(=O)c1ccccc1-2`, the GI50 is 0.256 µM in the assay with OVCAR-8 ovarian; 0.0929 µM with HT29 colon; 0.0484 µM in the assay on NCI-H460 lung; 0.509 µM with OVCAR-3 ovarian; 0.319 µM in the assay with MDA-MB-231 breast; 2.95 µM in the assay on SK-MEL-28 melanoma. In addition, the GI50 is 1.32 µM in the assay on T-47D breast, 0.379 µM with DU-145 prostate and 0.005 µM in the assay on SR leukemia. The TGI in the assay on OVCAR-8 ovarian came to 1.5 µM; with HT29 colon, 8.95 µM; in the assay with NCI-H460 lung it was 0.687 µM; in the assay on OVCAR-3 ovarian, 2.06 µM; with MDA-MB-231 breast, 1.34 µM; in the assay with SK-MEL-28 melanoma, 34.8 µM. The TGI worked out at 4.86 µM with T-47D breast, 1.12 µM in the assay with DU-145 prostate and 0.0273 µM in the assay with SR leukemia.

Turning to `FC(F)(F)c1nc(N2CCCC2)ncc1-c1nnnn1-c1ccc(Cl)cc1`, the GI50 in the assay on OVCAR-8 ovarian was 25 µM; in the assay on HT29 colon it was 20.4 µM; in the assay on NCI-H460 lung, 11.7 µM; in the assay with OVCAR-3 ovarian, 18.9 µM; in the assay on MDA-MB-231 breast, 24.6 µM; in the assay with SK-MEL-28 melanoma, 20 µM. The GI50 was 5.29 µM in the assay on T-47D breast, 48.4 µM in the assay with DU-145 prostate and 2.53 µM in the assay on SR leukemia. The TGI in the assay with OVCAR-8 ovarian is more than 100 µM; with HT29 colon, 65.9 µM; with NCI-H460 lung it was 90.2 µM; with OVCAR-3 ovarian, 83.4 µM; in the assay on MDA-MB-231 breast it was more than 100 µM; with SK-MEL-28 melanoma it was 74.8 µM. In addition, the TGI with T-47D breast is more than 100 µM; in the assay on DU-145 prostate it was more than 100 µM; in the assay on SR leukemia, 6.24 µM.
